Reference: patent US9290453B2 (Merck Sharp & Dohme Corp., priority 2010, dated 2016)

These molecules were tested against T1, hCRTH2 (Homo sapiens, UniProt Q9Y5Y4) (assay: Radioligand Binding Assay B (scintillation proximity assay, [3H]-PGD2, HEK-hCRTH2 membranes)). Settings: Radioligand Binding Assay B (SPA), values in text.
T1 construct: expressed in transfected cells; host or cells: HEK (human embryonic kidney) cells expressing hCRTH2
T1 sequence (Q9Y5Y4 1-395): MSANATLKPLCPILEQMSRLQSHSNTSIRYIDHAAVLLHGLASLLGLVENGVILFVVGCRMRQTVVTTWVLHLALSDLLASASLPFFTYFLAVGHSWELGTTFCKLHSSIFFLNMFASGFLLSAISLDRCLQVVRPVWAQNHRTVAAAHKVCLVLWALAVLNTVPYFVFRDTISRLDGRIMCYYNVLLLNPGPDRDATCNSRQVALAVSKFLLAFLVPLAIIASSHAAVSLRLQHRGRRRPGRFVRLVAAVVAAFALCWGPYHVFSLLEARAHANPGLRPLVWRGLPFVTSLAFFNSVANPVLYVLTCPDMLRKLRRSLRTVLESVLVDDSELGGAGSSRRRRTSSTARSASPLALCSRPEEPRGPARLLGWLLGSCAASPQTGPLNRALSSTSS
Procedure: Radioligand binding also was performed using scintillation proximity assay (SPA) technology in a similar way as described above in Radioligand Binding Assay A with minor modification. Assays were done at room temperature in 10 mM HEPES pH 7.4, 1 mM EDTA containing 2 mM MnCl2 and 16 nM [^3H]-PGD2 (PerkinElmer, Waltham, Mass.) (164 Ci mmol^−1), in a final volume of 0.05 mL. Competing ligands were diluted in dimethylsulfoxide (Me2SO) and added using very low volumes (50 nL). The reaction was initiated by the addition of a mixture of 3.52 μg of membrane protein prepared from a human embryonic kidney (HEK)-hCRTH2 cell line adhered to 140 ug of wheatgerm agglutinin SPA beads (PerkinElmer). Total and non-specific binding were determined in the absence and the presence of 10 μM of a CRTH2 antagonist, respectively. The reaction was routinely conducted for 60 min at room temperature followed by centrifugation for 5 minutes at 1000 RPM. The radioactivity was measured with a TopCountNXT (PerkinElmer). Results determined using the SPA-based assay were similar to those from the filtration binding assay.
For `O=C(O)CCCCc1cc2cc(C(=O)N3CCN(c4c(Cl)cncc4Cl)CC3)ccc2nc1-c1ccccc1` [Compound 1AY, 5-(6-(4-(3,5-dichloropyridin-4-yl)piperazine-1-carbonyl)-2-phenylquinolin-3-yl)pentanoic acid], the Ki was 14 nM.
Work on `CC1(C)CC(NC(=O)c2ccc3nc(-c4ccc(Cl)cc4)c(CCCCC(=O)O)cc3c2)c2ccccc2O1` (stereo not shown) [Compound 5BH, 5-(2-(4-chlorophenyl)-6-((2,2-dimethylchroman-4-yl)carbamoyl)quinolin-3-yl)pentanoic acid] yielded a Ki of 27.3 nM.
Work on `Cc1ccccc1N1CCN(C(=O)c2ccc3nc(-c4ccc(F)cc4)c(CCCCC(=O)O)cc3c2)CC1` [Compound 5AT, 5-(2-(4-fluorophenyl)-6-(4-(o-tolyl)piperazine-1-carbonyl)quinolin-3-yl)pentanoic acid] yielded a Ki of 7.2 nM.

Same assay, conditions: Table B, Radioligand Binding Assay B (SPA), rated A-D
`CC(C)(NC(=O)c1ccc2nc(-c3ccccc3)c(CCCCC(=O)O)cc2c1)c1ccc(F)cc1` [Compound 1AT, 5-(6-((2-(4-fluorophenyl)propan-2-yl)carbamoyl)-2-phenylquinolin-3-yl)pentanoic acid] was tested, and the Ki was 20.1 to 200 nM.
`N#Cc1cccnc1N1CCN(C(=O)c2ccc3nc(-c4ccccc4)c(CCCCC(=O)O)cc3c2)CC1` [Compound 1AX, 5-(6-(4-(3-cyanopyridin-2-yl)piperazine-1-carbonyl)-2-phenylquinolin-3-yl)pentanoic acid] was tested, and the Ki was 20.1 to 200 nM.
`COc1ccccc1C1CCN(C(=O)c2ccc3nc(-c4ccc(F)cc4)c(CCCCC(=O)O)cc3c2)CC1` [Compound 5AP, 5-(2-(4-fluorophenyl)-6-(4-(2-methoxyphenyl)piperidine-1-carbonyl)quinolin-3-yl)pentanoic acid] showed a Ki of 2.1 to 20 nM.
For `COc1ccc(N2CCN(C(=O)c3ccc4nc(-c5ccccc5)c(CCCCC(=O)O)cc4c3)CC2)cc1` [Compound 1BD, 5-(6-(4-(4-methoxyphenyl)piperazine-1-carbonyl)-2-phenylquinolin-3-yl)pentanoic acid], the Ki was 2.1 to 20 nM.
`O=C(O)CCCCc1cc2cc(C(=O)N3CCN(c4ccc(F)cc4)CC3)ccc2nc1-c1ccc(F)cc1` [Compound 5AX, 5-(2-(4-fluorophenyl)-6-(4-(4-fluorophenyl)piperazine-1-carbonyl)quinolin-3-yl)pentanoic acid] was tested, and the Ki was 2.1 to 20 nM.
`O=C(O)CCCCc1cc2cc(C(=O)N3CCN(c4ccccn4)CC3)ccc2nc1-c1ccccc1` [Compound 1AW, 5-(2-phenyl-6-(4-(pyridin-2-yl)piperazine-1-carbonyl)quinolin-3-yl)pentanoic acid] was tested, and the Ki was 20.1 to 200 nM.
For `O=C(O)CCCCc1cc2cc(C(=O)N3CCN(c4ccccc4Cl)CC3)ccc2nc1-c1ccc(F)cc1` [Compound 5AS, 5-(6-(4-(2-chlorophenyl)piperazine-1-carbonyl)-2-(4-fluorophenyl)quinolin-3-yl)pentanoic acid], the Ki was 2.1 to 20 nM.
`O=C(O)CCCCc1cc2cc(C(=O)N[C@@H]3CCOc4ccccc43)ccc2nc1-c1ccc(F)cc1` [Compound 5AD, (R)-5-(6-(chroman-4-ylcarbamoyl)-2-(4-fluorophenyl)quinolin-3-yl)pentanoic acid] gave a Ki of 2.1 to 20 nM.
With `CC1(C)CC(NC(=O)c2ccc3nc(-c4ccc(F)cc4)c(CCCCC(=O)O)cc3c2)c2ccccc2O1` (stereo not shown) [Compound 5AJ, 5-(6-((2,2-dimethylchroman-4-yl)carbamoyl)-2-(4-fluorophenyl)quinolin-3-yl)pentanoic acid] the Ki was 2.1 to 20 nM.
`N#Cc1ccccc1N1CCN(C(=O)c2ccc3nc(-c4ccc(F)cc4)c(CCCCC(=O)O)cc3c2)CC1` [Compound 5Ao, 5-(6-(4-(2-cyanophenyl)piperazine-1-carbonyl)-2-(4-fluorophenyl)quinolin-3-yl)pentanoic acid] showed a Ki of 2.1 to 20 nM.
Work on `Cc1ccc(N2CCN(C(=O)c3ccc4nc(-c5ccc(F)cc5)c(CCCCC(=O)O)cc4c3)CC2)cc1` [Compound 5AW, 5-(2-(4-fluorophenyl)-6-(4-(p-tolyl)piperazine-1-carbonyl)quinolin-3-yl)pentanoic acid] yielded a Ki of 2.1 to 20 nM.
`O=C(O)CCCCc1cc2cc(C(=O)N[C@@H]3CCCc4cc(F)ccc43)ccc2nc1-c1ccc(Cl)cc1` [Compound 5AY, (R)-5-(2-(4-chlorophenyl)-6-((6-fluoro-1,2,3,4-tetrahydronaphthalen-1-yl)carbamoyl)quinolin-3-yl)pentanoic acid] showed a Ki of 2.1 to 20 nM.
Work on `O=C(O)CCCCc1cc2cc(C(=O)N3CCN(c4ccccc4Cl)CC3)ccc2nc1-c1ccc(Cl)cc1` [Compound 5BP, 5-(2-(4-chlorophenyl)-6-(4-(2-chlorophenyl)piperazine-1-carbonyl)quinolin-3-yl)pentanoic acid] yielded a Ki of 20.1 to 200 nM.
`N#Cc1ccccc1N1CCN(C(=O)c2ccc3nc(-c4ccc(Cl)cc4)c(CCCCC(=O)O)cc3c2)CC1` [Compound 5BM, 5-(2-(4-chlorophenyl)-6-(4-(2-cyanophenyl)piperazine-1-carbonyl)quinolin-3-yl)pentanoic acid] gave a Ki of 2.1 to 20 nM.
`O=C(O)CCCCc1cc2cc(C(=O)N3CCN(c4ccccc4C(F)(F)F)CC3)ccc2nc1-c1ccc(F)cc1` [Compound 5AR, 5-(2-(4-fluorophenyl)-6-(4-(2-(trifluoromethyl)phenyl)piperazine-1-carbonyl)quinolin-3-yl)pentanoic acid] was tested, and the Ki was 2.1 to 20 nM.
Work on `O=C(O)CCCCc1cc2cc(C(=O)N3CC[C@@H](c4ccc(F)cc4)C3)ccc2nc1-c1ccccc1` [Compound 1AN, (S)-5-(6-(3-(4-fluorophenyl)pyrrolidine-1-carbonyl)-2-phenylquinolin-3-yl)pentanoic acid] yielded a Ki of 2.1 to 20 nM.
Work on `O=C(O)CCCCc1cc2cc(C(=O)N3CCN(c4c(Cl)cncc4Cl)CC3)ccc2nc1-c1ccccc1` [Compound 1AY, 5-(6-(4-(3,5-dichloropyridin-4-yl)piperazine-1-carbonyl)-2-phenylquinolin-3-yl)pentanoic acid] yielded a Ki of 2.1 to 20 nM.
`C[C@@H](NC(=O)c1ccc2nc(-c3ccc(Cl)cc3)c(CCCCC(=O)O)cc2c1)c1ccc(F)cc1` [Compound 5BC, (R)-5-(2-(4-chlorophenyl)-6-((1-(4-fluorophenyl)ethyl)carbamoyl)quinolin-3-yl)pentanoic acid] showed a Ki of 2.1 to 20 nM.
`O=C(O)CCCCc1cc2cc(C(=O)N3CC(c4ccccc4)C3)ccc2nc1-c1ccc(F)cc1` [Compound 5AM, 5-(2-(4-fluorophenyl)-6-(3-phenylazetidine-1-carbonyl)quinolin-3-yl)pentanoic acid] gave a Ki of 2.1 to 20 nM.
Molecule `CN(Cc1ccc(F)cc1)C(=O)c1ccc2nc(-c3ccccc3)c(CCCCC(=O)O)cc2c1` [Compound 1AK, 5-(6-((4-fluorobenzyl)(methyl)carbamoyl)-2-phenylquinolin-3-yl)pentanoic acid] has a Ki of 20.1 to 200 nM.
Molecule `O=C(O)CCCCc1cc2cc(C(=O)N3CC[C@H](c4ccc(F)cc4)C3)ccc2nc1-c1ccccc1` [Compound 1AM, (R)-5-(6-(3-(4-fluorophenyl)pyrrolidine-1-carbonyl)-2-phenylquinolin-3-yl)pentanoic acid] has a Ki of 20.1 to 200 nM.
In the case of `O=C(O)CCCCc1cc2cc(C(=O)N[C@@H]3CCCc4ccccc43)ccc2nc1-c1ccc(Cl)cc1` [Compound 5AZ, (R)-5-(2-(4-chlorophenyl)-6-((1,2,3,4-tetrahydronaphthalen-1-yl)carbamoyl)quinolin-3-yl)pentanoic acid], the Ki is reported as 2.1 to 20 nM.
For `O=C(O)CCCCc1cc2cc(C(=O)N3CC(c4cccc(F)c4)C3)ccc2nc1-c1ccc(Cl)cc1` [Compound 5BE, 5-(2-(4-chlorophenyl)-6-(3-(3-fluorophenyl)azetidine-1-carbonyl)quinolin-3-yl)pentanoic acid], the Ki was 2.1 to 20 nM.
In the case of `CC1(C)CC(NC(=O)c2ccc3nc(-c4ccc(Cl)cc4)c(CCCCC(=O)O)cc3c2)c2ccccc2O1` (stereo not shown) [Compound 5BH, 5-(2-(4-chlorophenyl)-6-((2,2-dimethylchroman-4-yl)carbamoyl)quinolin-3-yl)pentanoic acid], the Ki is reported as 20.1 to 200 nM.
`Cc1ccccc1N1CCN(C(=O)c2ccc3nc(-c4ccc(Cl)cc4)c(CCCCC(=O)O)cc3c2)CC1` [Compound 5BQ, 5-(2-(4-chlorophenyl)-6-(4-(o-tolyl)piperazine-1-carbonyl)quinolin-3-yl)pentanoic acid] gave a Ki of 2.1 to 20 nM.
With `Cc1ccccc1N1CCN(C(=O)c2ccc3nc(-c4ccc(F)cc4)c(CCCCC(=O)O)cc3c2)CC1` [Compound 5AT, 5-(2-(4-fluorophenyl)-6-(4-(o-tolyl)piperazine-1-carbonyl)quinolin-3-yl)pentanoic acid] the Ki was 2.1 to 20 nM.
Molecule `COc1ccc(N2CCN(C(=O)c3ccc4nc(-c5ccc(Cl)cc5)c(CCCCC(=O)O)cc4c3)CC2)cc1` [Compound 5BS, 5-(2-(4-chlorophenyl)-6-(4-(4-methoxyphenyl)piperazine-1-carbonyl)quinolin-3-yl)pentanoic acid] has a Ki of 2.1 to 20 nM.
Work on `N#Cc1ccccc1N1CCN(C(=O)c2ccc3nc(-c4ccccc4)c(CCCCC(=O)O)cc3c2)CC1` [Compound 1AZ, 5-(6-(4-(2-cyanophenyl)piperazine-1-carbonyl)-2-phenylquinolin-3-yl)pentanoic acid] yielded a Ki of 2.1 to 20 nM.
`Cc1cccc(N2CCN(C(=O)c3ccc4nc(-c5ccc(F)cc5)c(CCCCC(=O)O)cc4c3)CC2)c1` [Compound 5AU, 5-(2-(4-fluorophenyl)-6-(4-(m-tolyl)piperazine-1-carbonyl)quinolin-3-yl)pentanoic acid] showed a Ki of 2.1 to 20 nM.
Work on `C[C@@H](NC(=O)c1ccc2nc(-c3ccccc3)c(CCCCC(=O)O)cc2c1)c1ccc(F)cc1` [Compound 1AH, (R)-5-(6-((1-(4-fluorophenyl)ethyl)carbamoyl)-2-phenylquinolin-3-yl)pentanoic acid] yielded a Ki of 20.1 to 200 nM.
Work on `O=C(O)CCCCc1cc2cc(C(=O)N3CC(c4ccccc4)C3)ccc2nc1-c1ccc(Cl)cc1` [Compound 5BK, 5-(2-(4-chlorophenyl)-6-(3-phenylazetidine-1-carbonyl)quinolin-3-yl)pentanoic acid] yielded a Ki of 2.1 to 20 nM.
